Here are results for 1 compound from PMC8536644, “Enigmatic mechanism of the N-vinylpyrrolidone hepatocarcinogenicity in the rat” (Archives of Toxicology, 2021).

Data set [1] concerns rat liver cells. The experiment in a line: Comet assay, conventional (no FPG), liver. Particulars: for Increase of the TI vs vehicle control: p ≤ 0.01; for Hedgehogs/100 cells (mean ± SD) / TI (%) (mean ± SD) / TI (%), mean of medians from 2 slides: liver, 200 mg/kg bw oral, once; for TI (%), mean of medians from 2 slides: individual animals. The protocol: (§1) Animals were anesthetized by 3.5% isoflurane (approximately 3 min, evaporator Dräger Vapor 19.3) and then killed by cervical dislocation. The liver was removed and its left lateral lobe used for the Comet assay. The remainder of the liver was washed in saline and then in two aliquots shock frozen in liquid nitrogen and stored at − 80 °C for later examinations. Subsequently the lung was removed from the dead animal. Its left lobe was used for the Comet assay and the remainder treated as described above for the liver. Thereafter the femora were removed for the preparation of the bone marrow.
(§2) The Comet assay was performed under alkaline conditions according to the principles described by Singh et al. ([1988]) and Tice et al. ([2000]).
(§3) Liver and lung cells were obtained essentially as described by Hartmann et al. ([2004]) and by the Japanese Center for the Validation of Alternative Methods (JaCVAM [2009]). Single cells were obtained within 1 h after killing of the animals in order to minimize DNA damage during the preparation.
(§4) The organ parts (see above) were washed in mincing buffer (50 mM EDTA in HBSS [without Ca^2+ and Mg^2+] pH 7.5: DMSO 9:1 (v/v), the latter added shortly before use, stored at 4 °C), cut into 1 to 2-mm pieces in ice-cold mincing buffer and transferred to a cell sieve with 70-µm pores. The viability of the cell suspension was evaluated by the Trypan Blue Assay (Strober [2001]).
(§5) 100 µL of the obtained cell suspension was mixed at 37 °C with 900 µL Low Melting Agarose (LMA) (0.7% agarose in phosphate-buffered saline [PBS] [Biochrom, Berlin, Germany] without Ca^2+ and Mg^2+). 100 µL of this mixture was transferred to a slide, which had been coated with Normal Melting Agarose (NMA) (0.6% agarose in PBS without Ca^2+ and Mg^2+). The slides were protected with a cover slip and the agarose was hardened at approximately 4 °C. The cover slips were then removed and the slides put over night at 4 °C into lysis buffer (2.5 M NaCl, 125 mM NaOH, 127 mM EDTA, 10 mM Tris/NaOH, pH 10; 1% Triton X-100 and 10% DMSO (v/v), the latter two added before use) in order to lyse the cell membrane, nuclear membrane and remove the histone.
(§6) The then following procedures were performed in a shaded room to minimize UV-mediated DNA damage during the procedures.
(§7) Remaining lysis buffer or FPG buffer was removed by immersing/washing the slides in PBS (without Ca^2+ and Mg^2+).
The slides were then placed into the electrophoresis chamber, which was cooled and protected from light. Slides were covered with electrophoresis buffer (0.3 M NaOH, 1 mM EDTA, pH > 13) carefully avoiding air bubbles. The DNA was allowed to unwind (20 min). Thereafter the electrophoresis was started (25 V, 300 mA, […], 30 min). The slides were then washed (2 times 5 min) in neutralization buffer (0.4 M Tris/HCl, pH 7.5), dehydrated and fixed in 100% ethanol (1 min), dried at room temperature overnight and stored at room temperature protected from dust.
Quantitative evaluation of the Comet assays was performed by fluorescence microscopy after DNA staining with ethidium bromide.

In data set [2] the test system is rat liver cells. Description: Comet assay in presence of FPG, liver. Particulars: in presence of FPG, 200 mg/kg. The protocol:
as §1, §2, §3, §4, §5, §6
Those slides which were destined to be treated with the DNA base excision repair enzyme FPG (Sigma Aldrich, Steinheim, Germany) were washed (3 times for 5 min) with FPG buffer (0.04 M HEPES, 0.5 mM EDTA, 0.1 M KCl, pH 8; add shortly before use bovine serum albumin [BSA] to a final concentration of 0.02%). Subsequently 50 µL FPG-enzyme-buffer (prepared shortly prior to use by 30-fold dilution of the following suspension in FPG buffer: 7 µL FPG-enzyme (14 U) and 70 µL glycerol in 623 µL FPG-Puffer, stored at − 80 °C) was pipetted on the slide which was covered with a cover slide and incubated for 30 min at 37 °C while being placed on a humid filter paper. After hardening of the agarose cover slips were removed.
as §7

Data set [3] in a line: Trypan Blue viability of the single cell suspension, lung. It is filed as in vivo, rat. Particulars: Wistar, rat, in vivo, po, 200 mg/kg.

Molecules are shown by their SMILES. Values joined by “and” are separate entries in the source; they are usually repeats but may differ in a detail not shown here. Identical values can stand only once.

By viability is commonly meant a per cent measure of how many cells are alive, often set against a control. Lower therefore signals a greater loss of cells.

`CCOS(C)(=O)=O` [EMS, ethyl methanesulfonate, reference compound]: the “Tail intensity, liver, positive controls of the present study” value in data set [1] (200 mg/kg body weight) is recorded as 17–19%. For the same compound, the “Increase of the TI vs vehicle control” value in data set [1] (liver cells, female, no FPG, 200 mg/kg) is reported as 28 fold; in data set [1] (liver cells, male, no FPG, 200 mg/kg), 27 fold. The “Hedgehogs per 100 cells, averaged for both genders” value in data set [1] (liver cells, no FPG, 200 mg/kg) is recorded as 7.5 per 100 cells. In addition, the “Hedgehogs/100 cells (mean ± SD)” value in data set [1] (female, no FPG) is on record as 7 ± 4 /100 cells; in data set [1] (male, no FPG), 8 ± 2 /100 cells. The “TI (%) (mean ± SD)” value in data set [1] (female, no FPG) stood at 16.3 ± 4.49%; in data set [1] (male, no FPG), 18.6 ± 5.97%. In addition, the “TI (%), mean of medians from 2 slides” value in data set [1] (female, no FPG, 200 mg/kg) was 9.1% and 13.6% and 17.5% and 22.4% and 17.8% and 17.3%; in data set [1] (male, no FPG, 200 mg/kg), 18.9% and 17.5% and 29.0% and 10.6% and 19.3% and 16.4%. The “Comets seen in presence of FPG” value in data set [2] was “only hedgehogs were seen”. The “TI in presence of FPG (image analysis)” value in data set [2] is “marked increase”. Besides, the viability at 24 h in data set [3] (female, Individual viability (%)) was determined as 99%; in data set [3] (female, Viability (%) (mean ± SD)), 99 ± 1%; in data set [3] (male, Individual viability (%)), 99%; in data set [3] (male, Viability (%) (mean ± SD)), 99 ± 1%.
